Converted amounts (≈) assume the structure as drawn. Starred links: 1 amine or outer side, 2 acyl side, 3 side chain; linkers in the order of their positions; H or OH if unused. Non-standard residues stand in square brackets, D forms with d. Residues, ends and D or L forms follow the SMILES beside them. *: point of attachment. X2 = CCC(=O)C[C@@H](O)CC(C)C[C@H](N[*:1])C(=O)[*:2]; Leu(3R-OH) = CC(C)[C@@H](O)[C@H](N)C(=O)O; NH((S)CH(Me)CH2NMe2) = C[C@@H](CN(C)C)N*; Pro(4S-Me) = C[C@@H]1CN[C@H](C(=O)O)C1; X1 = CC[C@@H](C)/C=C/C(=O)*; Aib = CC(C)(N)C(=O)O; βAla = NCCC(=O)O
Tests used:
Format in all cases: functional
Staphylococcus aureus = test: Antimicrobial activity against Staphylococcus aureus
Microbacterium = test: Antimicrobial activity against Microbacterium species
Enterococcus faecalis = test: Antimicrobial activity against Streptococcus faecalis
Bacillus subtilis = test: Antimicrobial activity against Bacillus subtilis
Trichophyton = test: Antifungal activity against Trichophyton
Candida = test: Antifungal activity against Candida
[1] = Antifungal activity against Cryptococcus
Micrococcus luteus = test: Antimicrobial activity against Sarcina lutea
Sporotrichum = test: Antifungal activity against Sporotrichum
Streptococcus pyogenes = test: Antimicrobial activity against Streptococcus pyogenes
Microsporum = test: Antifungal activity against Microsporum
Streptococcus pneumoniae = test: Antimicrobial activity against Streptococcus pneumoniae

Row | SMILES | MIC (Staphylococcus aureus) [µg/mL] | MIC (Microbacterium) [µg/mL] | MIC (Enterococcus faecalis) [µg/mL] | MIC (Bacillus subtilis) [µg/mL] | MIC (Trichophyton) [µg/mL] | MIC (Candida) [µg/mL] | MIC [1] [µg/mL] | MIC (Micrococcus luteus) [µg/mL] | MIC (Sporotrichum) [µg/mL] | MIC (Streptococcus pyogenes) [µg/mL] | MIC (Microsporum) [µg/mL] | MIC (Streptococcus pneumoniae) [µg/mL]
1 | CCC(=O)C[C@@H](O)CC(C)C[C@H](NC(=O)[C@@H]1C[C@H](C)CN1C(=O)/C=C/[C@H](C)CC)C(=O)N[C@H](C(=O)NC(C)(C)C(=O)N[C@@H](CC(C)C)C(=O)N[C@@H](CC(C)C)C(=O)NC(C)(C)C(=O)NC(C)(C)C(=O)NCCC(=O)N[C@@H](C)CN(C)C)[C@H](O)C(C)C (stereo partly drawn) (X1-[Pro(4S-Me)][X2][Leu(3R-OH)][Aib]LL[Aib][Aib][βAla]-{NH((S)CH(Me)CH2NMe2)}) | 2.52 to 50 (≈ 2.07 to 41 µM) | 2.52 to 50 (≈ 2.07 to 41 µM) | 2.52 to 50 (≈ 2.07 to 41 µM) | 2.52 to 50 (≈ 2.07 to 41 µM) | 1 to 10 (≈ 0.821 to 8.21 µM) | 1 to 10 (≈ 0.821 to 8.21 µM) | 1 to 10 (≈ 0.821 to 8.21 µM) | 2.52 to 50 (≈ 2.07 to 41 µM) | 1 to 10 (≈ 0.821 to 8.21 µM) | 2.52 to 50 (≈ 2.07 to 41 µM) | 1 to 10 (≈ 0.821 to 8.21 µM) | –
2 | COc1nc2ccc(Br)cc2cc1[C@H](c1ccccc1)[C@](O)(CCN(C)C)c1ccc(Cl)cc1 | – | – | – | – | – | – | – | – | – | – | – | 1 (≈ 1.85 µM)

Reference: ChEMBL document CHEMBL4414576, “Recent advancements in mechanistic studies and structure activity relationship of FoF1 ATP synthase inhibitor as antimicrobial agent” (Eur J Med Chem, 2019)
